In article PMC10434272, “Overexpression of Eimeria tenella Rhoptry Kinase 2 Induces Early Production of Schizonts” (Microbiology Spectrum, 2023):
pIC50: −log10 of the molar value.

Tests used:
[1] = target: T1, EtROP2 (rhoptry kinase 2) (Eimeria tenella, UniProt U6KH66); design: gene ETH_00027700
[2] = target: T1, EtROP2 (rhoptry kinase 2); experiment: ADP-Glo kinase assay with p120-TLTR peptide substrate, […] ATP; assay type: biochemical; design: gene ETH_00027700; EtROP2-GST, wild type, full-length, from Met1 to Glu671, produced in Sf9 cells

T1 sequence (U6KH66 entry or part of it): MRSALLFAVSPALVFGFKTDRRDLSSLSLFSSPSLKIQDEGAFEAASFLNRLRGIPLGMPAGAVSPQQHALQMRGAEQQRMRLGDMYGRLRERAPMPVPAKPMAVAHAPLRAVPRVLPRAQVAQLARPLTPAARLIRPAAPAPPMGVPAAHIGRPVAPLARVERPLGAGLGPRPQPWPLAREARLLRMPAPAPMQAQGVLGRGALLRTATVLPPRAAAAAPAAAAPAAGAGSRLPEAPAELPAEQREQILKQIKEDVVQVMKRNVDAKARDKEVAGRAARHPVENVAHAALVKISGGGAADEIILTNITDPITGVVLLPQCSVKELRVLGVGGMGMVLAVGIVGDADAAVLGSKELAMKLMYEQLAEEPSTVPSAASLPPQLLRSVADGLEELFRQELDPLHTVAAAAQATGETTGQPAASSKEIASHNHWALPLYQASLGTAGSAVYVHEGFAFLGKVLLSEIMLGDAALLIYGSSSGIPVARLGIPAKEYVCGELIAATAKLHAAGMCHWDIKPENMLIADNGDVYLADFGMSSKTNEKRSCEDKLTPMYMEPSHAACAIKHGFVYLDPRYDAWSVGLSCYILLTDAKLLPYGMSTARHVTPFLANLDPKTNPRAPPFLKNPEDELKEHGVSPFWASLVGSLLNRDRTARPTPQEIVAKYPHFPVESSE

Structure (SMILES) | Km [1] [µM] | pIC50 [2]
Nc1ncnc2c1ncn2[C@@H]1O[C@H](COP(=O)(O)OP(=O)(O)OP(=O)(O)O)[C@@H](O)[C@H]1O [ATP] | ~7.52 | 
CN[C@@H]1C[C@H]2O[C@@](C)([C@@H]1OC)n1c3ccccc3c3c4c(c5c6ccccc6n2c5c31)C(=O)NC4 [STS, staurosporine] |  | 6.54
